Experimental data from US6635771B2, “N-benzhydryl indole compounds” (Wyeth, priority 2001, dated 2003).

Target: T1, cPLA2 (Homo sapiens, UniProt P47712)
T1 sequence (P47712 1-749): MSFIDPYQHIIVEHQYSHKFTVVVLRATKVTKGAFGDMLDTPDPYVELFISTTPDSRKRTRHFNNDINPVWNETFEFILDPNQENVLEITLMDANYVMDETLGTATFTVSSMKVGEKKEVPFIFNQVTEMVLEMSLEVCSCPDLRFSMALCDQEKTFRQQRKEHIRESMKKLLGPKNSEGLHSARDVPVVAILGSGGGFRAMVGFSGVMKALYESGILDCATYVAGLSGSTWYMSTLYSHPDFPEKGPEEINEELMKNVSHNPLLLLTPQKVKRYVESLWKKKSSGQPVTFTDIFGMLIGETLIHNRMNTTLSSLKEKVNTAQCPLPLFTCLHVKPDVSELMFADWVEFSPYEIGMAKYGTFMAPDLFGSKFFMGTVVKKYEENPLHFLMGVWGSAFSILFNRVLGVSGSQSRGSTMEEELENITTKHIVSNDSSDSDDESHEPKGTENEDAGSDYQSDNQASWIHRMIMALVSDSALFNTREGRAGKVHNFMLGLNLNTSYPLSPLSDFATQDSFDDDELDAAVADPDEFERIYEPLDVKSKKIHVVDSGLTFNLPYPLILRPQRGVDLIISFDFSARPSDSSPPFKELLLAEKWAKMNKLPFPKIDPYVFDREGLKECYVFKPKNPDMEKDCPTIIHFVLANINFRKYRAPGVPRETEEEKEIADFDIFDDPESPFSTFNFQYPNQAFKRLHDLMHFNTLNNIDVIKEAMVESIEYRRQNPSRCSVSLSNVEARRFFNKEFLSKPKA
Assay: Coumarine Assay
Assay type: biochemical
Conditions: 60 μM 7-hydroxycoumarinyl 6-heptenoate substrate, 4 μg cPLA2, pH 7.5, fluorescence ex 360 nm / em 460 nm; read-out: Coumarin IC50

Row | SMILES | IC50 [nM]
1 | N#Cc1ccc(CS(=O)(=O)NCCc2c(CCOc3ccc(C(=O)O)cc3)c3cc(Cl)ccc3n2C(c2ccccc2)c2ccccc2)cc1 [Example 37, 4-{2-[1-Benzhydryl-5-chloro-2-(2-{[(4-cyanobenzyl)sulfonyl]amino}ethyl)-1H-indol-3-yl]ethoxy}benzoic acid] | 370
2 | O=C(O)c1ccc(OCCc2c(CCNS(=O)(=O)Cc3ccc(S(=O)(=O)N4CCCCC4)cc3)n(C(c3ccccc3)c3ccccc3)c3ccc(Cl)cc23)cc1 [Example 38, 4-(2-{1-Benzhydryl-5-chloro-2-[2-({[4-(1piperidinylsulfonyl)benzyl]sulfonyl}amino)ethyl]-1H-indol-3-yl}ethoxy)benzoic acid] | 500
3 | NS(=O)(=O)c1ccc(CS(=O)(=O)NCCc2c(CCOc3ccc(C(=O)O)cc3)c3cc(Cl)ccc3n2C(c2ccccc2)c2ccccc2)cc1 [Example 39, 4-(2-{2-[2-({[4-(Aminosulfonyl)benzyl]sulfonyl}amino)ethyl]-1-benzhydryl-5-chloro-1H-indol-3-yl}ethoxy)benzoic acid] | 320
4 | CS(=O)(=O)c1ccc(CS(=O)(=O)NCCc2c(CCOc3ccc(C(=O)O)cc3)c3cc(Cl)ccc3n2C(c2ccccc2)c2ccccc2)cc1 [Example 40, 4-(2-{1-Benzhydryl-5-chloro-2-[2-(4-methanesulfonyl-phenylmethanesulfonylamino)-ethyl]-1H-indol-3-yl}-ethoxy)-benzoic acid] | 730
5 | O=C(O)c1ccc(CCCc2c(CCNS(=O)(=O)Cc3cc(Cl)cc(Cl)c3)n(C(c3ccccc3)c3ccccc3)c3ccc(Cl)cc23)cc1 [Example 43, 4-{3-[1-benzhydryl-5-chloro-2-(2-{[(3,5-dichlorobenzyl)sulfonyl]amino}ethyl)-1H-indol-3-yl]propyl}benzoic acid] | 200
6 | O=C(O)c1ccc(OCCc2c(CCNS(=O)(=O)CCNC(=O)c3ccccc3C(=O)O)n(C(c3ccccc3)c3ccccc3)c3ccc(Cl)cc23)cc1 [Example 48, 2-{[(2-{[(2-{1-benzhydryl-3-[2-(4-carboxyphenoxy)ethyl]-5-chloro-1H-indol-2-yl}ethyl)amino]sulfonyl}ethyl)amino]carbonyl}benzoic acid] | 2350
7 | O=C(O)c1ccc(OCCc2c(CCNS(=O)(=O)Cc3cccnc3)n(C(c3ccccc3)c3ccccc3)c3ccc(Cl)cc23)cc1 [Example 49] | 1100
8 | O=C(O)c1ccc(OCCc2c(CCNS(=O)(=O)Cc3ccncc3)n(C(c3ccccc3)c3ccccc3)c3ccc(Cl)cc23)cc1 [Example 50] | 690
9 | O=C(O)c1ccc(OCCc2c(CCNS(=O)(=O)Cc3ccccn3)n(C(c3ccccc3)c3ccccc3)c3ccc(Cl)cc23)cc1 [Example 51] | 2200
10 | O=C(O)c1ccc(OCCc2c(CCNS(=O)(=O)Cc3ccc([N+](=O)[O-])cc3)n(C(c3ccccc3)c3ccccc3)c3ccc(Cl)cc23)cc1 [Example 54, 4-{2-[1-benzhydryl-5-chloro-2-(2-{[(4-nitrobenzyl)sulfonyl]amino}ethyl)-1H-indol-3-yl]ethoxy}benzoic acid] | 310
11 | O=C(O)c1ccc(OCCc2c(CCNS(=O)(=O)Cc3cccc([N+](=O)[O-])c3)n(C(c3ccccc3)c3ccccc3)c3ccc(Cl)cc23)cc1 [Example 55, 4-{2-[1-benzhydryl-5-chloro-2-(2-{[(3-nitrobenzyl)sulfonyl]amino}ethyl)-1H-indol-3-yl]ethoxy}benzoic acid] | 260
12 | O=C(O)c1ccc(CCCc2c(CCNS(=O)(=O)Cc3ccc(F)cc3)n(C(c3ccccc3)c3ccccc3)c3ccc(Cl)cc23)cc1 [Example 57] | 280
13 | O=C(O)c1ccc(CCCc2c(CCNS(=O)(=O)Cc3ccc(C(F)(F)F)cc3)n(C(c3ccccc3)c3ccccc3)c3ccc(Cl)cc23)cc1 [Example 58, 4-(3-{1-benzhydryl-5-chloro-2-[2-({[4-(trifluoromethyl)benzyl]sulfonyl}amino)ethyl]-1H-indol-3-yl}propyl)benzoic acid] | 360
14 | O=C(O)c1ccc(CCCc2c(CCNS(=O)(=O)Cc3cccc(C(F)(F)F)c3)n(C(c3ccccc3)c3ccccc3)c3ccc(Cl)cc23)cc1 [Example 59, 4-(3-{1-benzhydryl-5-chloro-2-[2-({[3-(trifluoromethyl)benzyl]sulfonyl}amino)ethyl]-1H-indol-3-yl}propyl)benzoic acid] | 290
15 | O=C(O)c1ccc(CCCc2c(CCNS(=O)(=O)Cc3ccccn3)n(C(c3ccccc3)c3ccccc3)c3ccc(Cl)cc23)cc1 [Example 61, 4-{3-[1-benzhydryl-5-chloro-2-(2-{[(2-pyridinylmethyl)sulfonyl]amino}ethyl)-1H-indol-3-yl]propyl}benzoic acid] | 340
16 | O=C(O)c1ccc(CCCc2c(CCNS(=O)(=O)Cc3cccnc3)n(C(c3ccccc3)c3ccccc3)c3ccc(Cl)cc23)cc1 [Example 62, 4-(3-[1-benzhydryl-5-chloro-2-(2-{[(3-pyridinylmethyl)sulfonyl]amino}ethyl)-1H-indol-3-yl]propyl}benzoic acid] | 380
17 | O=C(O)c1ccc(CCCc2c(CCNS(=O)(=O)Cc3ccncc3)n(C(c3ccccc3)c3ccccc3)c3ccc(Cl)cc23)cc1 [Example 63, 4-{3-[1-benzhydryl-5-chloro-2-(2-{[(4-pyridinylmethyl)sulfonyl]amino}ethyl)-1H-indol-3-yl]propyl}benzoic acid] | 300
18 | O=C(O)c1ccc(OCCc2c(CCNS(=O)(=O)Cc3ccc(OC(F)(F)F)cc3)n(C(c3ccccc3)c3ccccc3)c3ccc(Cl)cc23)cc1 [Example 71, 4-{2-[1-Benzhydryl-5-chloro-2-(2-{[(4-trifluorometoxybenzyl)sulfonyl]amino}ethyl)-1H-indol-3-yl]ethoxy}benzoic acid] | 450
19 | O=C(O)c1ccc(OCCc2c(CCNS(=O)(=O)Cc3c(F)cccc3[N+](=O)[O-])n(C(c3ccccc3)c3ccccc3)c3ccc(Cl)cc23)cc1 [Example 72, 4-{2-[1-Benzhydryl-5-chloro-2-(2-{[(2-fluoro-6-nitrobenzyl)sulfonyl]amino}ethyl)-1H-indol-3-yl]ethoxy)benzoic acid] | 280

The remaining molecules from weak to strong by IC50, led by results:

Row | IC50 [nM] | SMILES
20 | 200 | CCN(CC)S(=O)(=O)c1ccc(CS(=O)(=O)NCCc2c(CCOc3ccc(C(=O)O)cc3)c3cc(Cl)ccc3n2C(c2ccccc2)c2ccccc2)cc1 [Example 41, 4-(2-{1-Benzhydryl-5-chloro-2-[2-(4-diethylsulfamoyl-phenylmethanesulfonylamino) -ethyl]-1H-indol-3-yl}-ethoxy)-benzoic acid]
21 | 180 | O=C(O)c1ccc(CCCc2c(CCNS(=O)(=O)Cc3ccccc3)n(C(c3ccccc3)c3ccccc3)c3ccc(Cl)cc23)cc1 [Example 42, 4-{3-[1-Benzhydryl-5-chloro-2-(2-phenylmethanesulfonylamino-ethyl)-1H-indol-3-yl]-propyl)-benzoic acid]
22 | 180 | Cc1ccccc1CS(=O)(=O)NCCc1c(CCCc2ccc(C(=O)O)cc2)c2cc(Cl)ccc2n1C(c1ccccc1)c1ccccc1 [Example 70, 4-{3-[1-Benzhydryl-5-chloro-2-(2-{[(2-methylbenzyl)sulfonyl]amino}ethyl)-1H-indol-3-yl]propyl}benzoic acid]
23 | 160 | COc1cccc(CS(=O)(=O)NCCc2c(CCCc3ccc(C(=O)O)cc3)c3cc(Cl)ccc3n2C(c2ccccc2)c2ccccc2)c1 [Example 68, 4-{3-[1-benzhydryl-5-chloro-2-(2-{[(3-methoxybenzyl)sulfonyl]amino}ethyl)-1H-indol-3-yl]propyl}benzoic acid]
24 | 150 | O=C(O)c1ccc(CCCc2c(CCNS(=O)(=O)Cc3cccc(Cl)c3)n(C(c3ccccc3)c3ccccc3)c3ccc(Cl)cc23)cc1 [Example 66, 4-{3-[1-benzhydryl-5chloro-2-(2{[(3-chlorobenzyl)sulfonyl]amino}ethyl)-1H-indol-3-yl]propyl}benzoic acid]
25 | 150 | Nc1ccccc1CS(=O)(=O)NCCc1c(CCCc2ccc(C(=O)O)cc2)c2cc(Cl)ccc2n1C(c1ccccc1)c1ccccc1 [Example 69, 4-{3-[2-(2-{[(2-aminobenzyl)sulfonyl]amino}ethyl)-1-benzhydryl-5-chloro-1H-indol-3-yl]propyl}benzoic acid]
26 | 140 | O=C(O)c1ccc(CCCc2c(CCNS(=O)(=O)Cc3cc(Cl)ccc3Cl)n(C(c3ccccc3)c3ccccc3)c3ccc(Cl)cc23)cc1 [Example 67, 4-{3-[1-benzhydryl-5-chloro-2-(2-{[(2,5-dichlorobenzyl)sulfonyl]amino}ethyl)-1H-indol-3-yl]propyl}benzoic acid]
27 | 130 | Cc1cccc(C)c1CS(=O)(=O)NCCc1c(CCCc2ccc(C(=O)O)cc2)c2cc(Cl)ccc2n1C(c1ccccc1)c1ccccc1 [Example 52, 4-{3-[1-benzhydryl-5-chloro-2-(2-{[(2,6-dimethylbenzyl)sulfonyl]amino}ethyl)-1H-indoly-3-yl]propyl}benzoic acid]
28 | 130 | O=C(O)c1ccc(CCCc2c(CCNS(=O)(=O)Cc3cccc([N+](=O)[O-])c3)n(C(c3ccccc3)c3ccccc3)c3ccc(Cl)cc23)cc1 [Example 65, 4-{3-[1-benzhydryl-5-chloro-2-(2-{[(3-nitrobenzyl)sulfonyl]amino}ethyl)-1H-indol-3-yl]propyl}benzoic acid]
